According to patent publication US11066414B2, “Cot modulators and methods of use thereof” (Gilead Sciences, Inc., priority 2015, dated 2021):
Read-outs that look alike come from different tables or passages of the source.

Tests used:
Human Cot = Human Cot (Homo sapiens (Human), UniProt P41279); test: High Throughput Cot Biochemical Assay; conditions: Cot HTRF (TR-FRET) biochemical assay
TNFα = test: Cot Monocyte TNFα Cell Based Assay
[1] = Homo sapiens, Monocyte, read-out: EC50 TNF, LPS-stimulated human monocytes, TNFα

Sequence of Human Cot (P41279 30-397): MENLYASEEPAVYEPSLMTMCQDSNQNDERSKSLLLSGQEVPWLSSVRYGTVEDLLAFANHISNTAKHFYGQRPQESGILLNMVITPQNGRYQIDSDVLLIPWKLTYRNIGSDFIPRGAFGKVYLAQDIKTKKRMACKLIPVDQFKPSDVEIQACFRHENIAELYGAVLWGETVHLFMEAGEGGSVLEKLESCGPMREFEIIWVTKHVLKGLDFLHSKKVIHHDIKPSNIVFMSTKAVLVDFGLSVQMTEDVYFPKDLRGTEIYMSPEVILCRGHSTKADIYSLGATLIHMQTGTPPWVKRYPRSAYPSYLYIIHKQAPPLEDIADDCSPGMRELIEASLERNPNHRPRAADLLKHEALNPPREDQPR

| SMILES | IC50 (Human Cot; IC50 HTRF) [nM] | EC50 (TNFα; [1]) [nM] | IC50 (Human Cot; read-out: IC50 HTRF) [nM] | EC50 (TNFα; read-out: EC50 TNF, LPS-stimulated human monocytes, TNFα) [nM] |
| --- | --- | --- | --- | --- |
| CCN1CCC(n2cc(C(Nc3cc(Cl)c4ncc(C#N)c(Nc5ccc(F)c(Cl)c5)c4c3)c3cncnc3)nn2)CC1 (stereo not drawn) [Example 366, 8-chloro-4-((3-chloro-4-fluorophenyl)amino)-6-(((1-(1-ethylpiperidin-4-yl)-1H-1,2,3-triazol-4-yl)(pyrimidin-5-yl)methyl)amino)-quinoline-3-carbonitrile] | 5 | 336 |  |  |
| CCN1CCC(n2cc([C@H](c3cccnc3)N(CC)c3cc(Cl)c4ncc(C#N)c(Nc5ccc(F)c(Cl)c5)c4c3)nn2)CC1 [Example 368, (S)-8-chloro-4-((3-chloro-4-fluorophenyl)amino)-6-(ethyl((1-(1-ethylpiperidin-4-yl)-1H-1,2,3-triazol-4-yl)(pyridin-3-yl)methyl)-amino)quinoline-3-carbonitrile] | 649 | 6300 |  |  |
| CCN1CCC(n2cc([C@@H](Nc3cc(Cl)c4ncc(C#N)c(Nc5ccc(F)c(Cl)c5)c4c3)c3cscc3Cl)nn2)CC1 [Example 371, (S)-8-chloro-4-((3-chloro-4-fluorophenyl)amino)-6-(((4-chlorothiophen-3-yl)(1-(1-ethylpiperidin-4-yl)-1H-1,2,3-triazol-4-yl)methyl)-amino)quinoline-3-carbonitrile] | 2 | 173 |  |  |
| N#Cc1cnc2c(Cl)cc(N[C@H](c3cn(C4CCNCC4)nn3)c3cncs3)cc2c1Nc1ccc(F)c(Cl)c1 [Example 375, (R)-8-chloro-4-((3-chloro-4-fluorophenyl)amino)-6-(((1-(piperidin-4-yl)-1H-1,2,3-triazol-4-yl)(thiazol-5-yl)methyl)amino)quinoline-3-carbonitrile] | 4 | 1510 |  |  |
| N#Cc1cnc2c(Cl)cc(NC(c3cccnc3)c3ccccn3)cc2c1Nc1ccc(F)c(Cl)c1 (stereo not drawn) [Example 376, 8-chloro-4-((3-chloro-4-fluorophenyl)amino)-6-((pyridin-2-yl(pyridin-3-yl)methyl)amino)-quinoline-3-carbonitrile] |  | > 1000 | 182 |  |
| N#Cc1cnc2c(Cl)cc(NC(c3ccccn3)c3ccccn3)cc2c1Nc1ccc(F)c(Cl)c1 [Example 377, 8-chloro-4-((3-chloro-4-fluoro-phenyl)amino)-6-((di(pyridin-2-yl)methyl)amino)quinoline-3-carbonitrile] |  | > 1000 | 398 |  |
| CCN1CCC(n2cc([C@@H](Nc3cc(Cl)c4ncc(C#N)c(Nc5ccc(F)c(Cl)c5)c4c3)c3ccc(Cl)nc3)nn2)CC1 [Example 379, (S)-8-chloro-4-((3-chloro-4-fluoro-phenyl)amino)-6-(((6-chloropyridin-3-yl)(1-(1-ethylpiperidin-4-yl)-1H-1,2,3-triazol-4-yl)methyl)amino)quinoline-3-carbonitrile] | 6 | 179 |  |  |
| CCN1CCC(n2cc([C@@H](Nc3cc(Cl)c4ncc(C#N)c(Nc5ccc(F)c(Cl)c5)c4c3)c3cc(Cl)cs3)nn2)CC1 [Example 381, (R)-8-chloro-4-((3-chloro-4-fluoro-phenyl)amino)-6-(((4-chlorothiophen-2-yl)(1-(1-ethylpiperidin-4-yl)-1H-1,2,3-triazol-4-yl)methyl)amino)-quinoline-3-carbonitrile] | 7 | 303 |  |  |
| CCN1CCC(n2cc([C@@H](Nc3cc(Cl)c4ncc(C#N)c(Nc5ccc(F)c(Cl)c5)c4c3)c3sccc3Cl)nn2)CC1 [Example 389, (R)-8-chloro-4-((3-chloro-4-fluoro-phenyl)amino)-6-(((3-chlorothiophen-2-yl)(1-(1-ethylpiperidin-4-yl)-1H-1,2,3-triazol-4-yl)methyl)amino)-quinoline-3-carbonitrile] | 11 | 328 |  |  |
| Cn1cnc(C(Nc2cc(Cl)c3ncc(C#N)c(Nc4ccc(F)c(Cl)c4)c3c2)c2cccnc2)c1 (stereo not drawn) [Example 403, 8-chloro-4-((3-chloro-4-fluoro-phenyl)amino)-6-(((1-methyl-1H-imidazol-4-yl)(pyridin-3-yl)methyl)-amino)quinoline-3-carbonitrile] |  | 290 | 9 |  |
| N#Cc1cnc2c(Cl)cc(NC(c3cccnc3)c3cn(C4CCNCC4)nn3)cc2c1Nc1ccc(F)c(Cl)c1 (stereo not drawn) [Example 405, 8-chloro-4-((3-chloro-4-fluoro-phenyl)amino)-6-(((1-(piperidin-4-yl)-1H-1,2,3-triazol-4-yl)(pyridin-3-yl)methyl)amino)quinoline-3-carbonitrile] | 2 | 1040 |  |  |

Next, values leading:

| IC50 (Human Cot; IC50 HTRF) [nM] | EC50 (TNFα; [1]) [nM] | IC50 (Human Cot; read-out: IC50 HTRF) [nM] | EC50 (TNFα; read-out: EC50 TNF, LPS-stimulated human monocytes, TNFα) [nM] | SMILES |
| --- | --- | --- | --- | --- |
|  |  | 8 | 232 | CC(C)(C)N1CCC(n2cc([C@@H](Nc3cc(Cl)c4ncc(C#N)c(Nc5ccc(F)c(Cl)c5)c4c3)c3cncs3)nn2)CC1 [Example 370] |
| 2 | 81 |  |  | CCN1CCC(n2cc([C@@H](Nc3cc(Cl)c4ncc(C#N)c(Nc5ccc(F)c(Cl)c5)c4c3)c3cc(C#N)cs3)nn2)CC1 [Example 372, (R)-8-chloro-4-((3-chloro-4-fluorophenyl)amino)-6-(((4-cyanothiophen-2-yl)(1-(1-ethylpiperidin-4-yl)-1H-1,2,3-triazol-4-yl)methyl)-amino)quinoline-3-carbonitrile] |
| 3 | 81 |  |  | CCCN1CCC(n2cc([C@@H](Nc3cc(Cl)c4ncc(C#N)c(Nc5ccc(F)c(Cl)c5)c4c3)c3cncs3)nn2)CC1 [Example 373, (R)-8-chloro-4-((3-chloro-4-fluorophenyl)amino)-6-(((1-(1-propylpiperidin-4-yl)-1H-1,2,3-triazol-4-yl)(thiazol-5-yl)methyl)amino)-quinoline-3-carbonitrile] |
| 2 | 168 |  |  | CCN1CCC(n2cc([C@@H](Nc3cc(Cl)c4ncc(C#N)c(Nc5ccc(F)c(Cl)c5)c4c3)c3cncs3)nn2)CC1 [Example 378, (R)-8-chloro-4-((3-chloro-4-fluoro-phenyl)amino)-6-(((1-(1-ethylpiperidin-4-yl)-1H-1,2,3-triazol-4-yl)(thiazol-5-yl)methyl)amino)quinoline-3-carbonitrile] |
| 1 | 88 |  |  | CC(C)(C)CNc1c(C#N)cnc2c(Br)cc(N[C@H](c3cn(C4(C(N)=O)CC4)nn3)c3cccc4ncsc34)cc12 [Example 408, (S)-1-(4-(benzo[d]thiazol-7-yl((8-bromo-3-cyano-4-(neopentylamino)-quinolin-6-yl)amino)methyl)-1H-1,2,3-triazol-1-yl)cyclopropane-1-carboxamide] |
| 1 | 559 |  |  | CC(C)(C)CNc1c(C#N)cnc2c(C#N)cc(N[C@H](c3cn(C4(C(N)=O)CC4)nn3)c3cccc4ncsc34)cc12 [Example 409, (S)-1-(4-(benzo[d]thiazol-7-yl((3,8-dicyano-4-(neopentylamino)quinolin-6-yl)amino)methyl)-1H-1,2,3-triazol-1-yl)cyclopropane-1-carboxamide] |
| 113 | 1000 |  |  | CC(C)(C)CNc1c(C#N)cnc2c(C#N)cc(N[C@@H](c3cn(C4CC4)nn3)c3cccc4ncsc34)cc12 [Example 410, (R)-6-((benzo[d]thiazol-7-yl(1-cyclopropyl-1H-1,2,3-triazol-4-yl)methyl)amino)-4-(neopentyl-amino)quinoline-3,8-dicarbonitrile] |
